According to ChEMBL document CHEMBL1140936, “Topological polar surface area defines substrate transport by multidrug resistance associated protein 1 (MRP1/ABCC1)” (J Med Chem, 2009):

Experiments:
[1] = target: T1, Multidrug resistance-associated protein 1 (Homo sapiens, UniProt P33527); test: Activity of MRP1
[2] = target: T1, Multidrug resistance-associated protein 1; test: Activity at MRP1 in human HeLa T5 cells assessed as ATP-dependent drug transport at 50 nM measured per mg of protein; assay type: cell-based; settings: 0.05 µM

T1 sequence (P33527 whole entry): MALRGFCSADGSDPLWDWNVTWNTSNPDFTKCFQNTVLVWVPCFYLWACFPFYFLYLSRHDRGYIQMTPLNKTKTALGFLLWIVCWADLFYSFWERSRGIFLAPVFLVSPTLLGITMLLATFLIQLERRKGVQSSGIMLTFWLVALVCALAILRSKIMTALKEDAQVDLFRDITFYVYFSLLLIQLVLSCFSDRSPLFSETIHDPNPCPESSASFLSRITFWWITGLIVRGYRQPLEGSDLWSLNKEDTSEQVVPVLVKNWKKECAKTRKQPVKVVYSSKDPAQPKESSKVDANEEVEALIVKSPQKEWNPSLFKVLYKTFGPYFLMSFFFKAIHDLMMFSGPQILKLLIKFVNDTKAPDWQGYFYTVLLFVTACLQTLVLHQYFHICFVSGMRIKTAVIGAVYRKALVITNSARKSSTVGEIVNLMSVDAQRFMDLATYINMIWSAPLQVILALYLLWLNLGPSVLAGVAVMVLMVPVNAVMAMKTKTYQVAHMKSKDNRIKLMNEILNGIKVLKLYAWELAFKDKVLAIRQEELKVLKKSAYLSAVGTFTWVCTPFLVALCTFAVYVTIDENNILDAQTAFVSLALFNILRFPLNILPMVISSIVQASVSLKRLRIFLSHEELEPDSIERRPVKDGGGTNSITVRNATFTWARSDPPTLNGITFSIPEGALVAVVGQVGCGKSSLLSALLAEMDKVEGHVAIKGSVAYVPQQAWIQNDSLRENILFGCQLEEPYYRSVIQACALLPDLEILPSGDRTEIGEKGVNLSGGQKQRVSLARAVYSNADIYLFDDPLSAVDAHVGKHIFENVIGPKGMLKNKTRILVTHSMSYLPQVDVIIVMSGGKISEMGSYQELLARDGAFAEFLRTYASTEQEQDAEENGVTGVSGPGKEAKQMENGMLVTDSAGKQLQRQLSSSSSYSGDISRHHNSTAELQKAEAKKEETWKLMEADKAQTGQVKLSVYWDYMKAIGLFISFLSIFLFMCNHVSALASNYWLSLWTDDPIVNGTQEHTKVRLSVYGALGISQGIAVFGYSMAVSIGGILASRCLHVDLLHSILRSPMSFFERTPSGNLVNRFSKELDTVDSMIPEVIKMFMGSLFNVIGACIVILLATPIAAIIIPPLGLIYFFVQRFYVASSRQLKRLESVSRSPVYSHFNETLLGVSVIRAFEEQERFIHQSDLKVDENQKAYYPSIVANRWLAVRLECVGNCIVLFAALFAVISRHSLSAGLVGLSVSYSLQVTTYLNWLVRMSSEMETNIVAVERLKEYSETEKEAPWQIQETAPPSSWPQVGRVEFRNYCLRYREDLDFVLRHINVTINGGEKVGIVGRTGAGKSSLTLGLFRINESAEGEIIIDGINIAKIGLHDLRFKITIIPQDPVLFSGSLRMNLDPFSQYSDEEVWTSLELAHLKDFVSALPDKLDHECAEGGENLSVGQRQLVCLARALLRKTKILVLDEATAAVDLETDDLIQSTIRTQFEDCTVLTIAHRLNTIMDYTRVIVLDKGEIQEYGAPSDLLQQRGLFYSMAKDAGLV

Km [1] [µM] | Activity [2] [pmol/min] | Structure (SMILES)
12 | – | Cc1ccc(N(CC(=O)O)CC(=O)O)c(OCCOc2cc(-c3c4cc(Cl)c(=O)cc-4oc4cc(O)c(Cl)cc34)ccc2N(CC(=O)O)CC(=O)O)c1
– | 8 | CCCCC/C=C\C\C=C/C=C/C=C/[C@@H](SC[C@H](N)C(=O)O)[C@@H](O)CCCC(=O)O [LEUKOTRIEN E4]
– | 15 | CCCCC/C=C\C\C=C/C=C/C=C/[C@@H](SC[C@H](N)C(=O)NCC(=O)O)[C@@H](O)CCCC(=O)O [LEUKOTRIENE D4]
